Patent publication US10167507B2, “Metabolic diseases-related odorant receptor genes and use thereof” (INDUSTRY-ACADEMIC COOPERATION FOUNDATION, YONSEI UNIVERSITY, priority 2010, dated 2019)

How the values were obtained:
[1] = tested on: olfactory receptors in visceral fat tissue; test: OligoDNA microarray, visceral fat tissue of HFD mice fed odor components; type: in vivo, mouse; settings: supplemented to HFD-fed mouse 10 weeks
Experimental: DNA microarry analysis using RNAs of visceral fat and liver tissue was conducted by GENOCHECK (CO., LTD.). RNA samples were pooled from 10 mice in each experimental group and subjected to microarray experiments in triplicate for the test of reproducibility. NimbleGen Mouse Whole Oligo 12-plex chip used in this experiment was prepared by triplicating 42,576 genes using Mouse Genome Build 8 as database. In NimbleGen mouse Whole Oligo 12-plex chip, 137,090 spots excluded control group gene were spotted by 16 μm×16 μm size in 17.4 mm×13 mm size. 42,576 oligo included 137,145 genes which are known their functions and 5,431 transcripts and EST sequences which are unknown their functions. 10-50 μg of total RNA was added in oligo-dT primer, reverse transcriptase, dNTP, Cy3-dUTP and Cy5-dUTP, and reverse-transcripted according to the kit manufacturer's recommendations. The resultant was purified using cartridge, dried and dissolved in hybridization buffer solution (30 μL). The microarray was placed in hybridization cassette, heated at 95-100° C. for 5 min, mixed independently to each of RNA labeled with Cy3 and Cy5, and hybridized at 45° C. for 18 hrs. The slide was washed twice in solution containing 1×SSC and 0.1% SDS for 5 min, washed in 1×SSC for 5 min and dried to analyze.

[2] = tested on: olfactory receptors in liver tissue; test: OligoDNA microarray, liver tissue of HFD mice fed odor components; type: in vivo, mouse; settings: supplemented to HFD-fed mouse 10 weeks
Excerpt: (§1) The obesity-inducing control diet used in the test was high-fat diet (HFD: 40% fat calorie, 17 g lard+3% corn oil/100 g diet). Diets supplemented with an odor component had the same composition as HFD, except that each of various types of odor components (indol-3-carbinol, oleuropein, cedryl acetate, α-cedrene and piperine) having anti-obesity efficacy was contained in 0.02-0.05% concentration. Indo)-3-carbinol, oleuropein, cedryl acetate, a-cedrene and piperine were purchased from Sigma-Aldrich.
(§2) After adding Trizol agent to visceral fat or liver tissue, the mixture was homogenized and centrifuged at 12,000×g for 10 min at 4° C. The supernatant was transferred to a new tube to remove fat layer. Then, 200 μl of chloroform was added to the tube, followed by vortexing. The same procedure was repeated twice and then the supernatant was transferred to a new tube, followed by addition of isopropanol and the supernatant at 1:1 ratio. The mixture was vigorously shaken 10 times and then incubated for 10 min at room temperature, followed by centrifugation at 12,000×g for 10 min at 4° C. to remove the supernatant. After adding 1 mL of 70% ethanol to the remaining pellet, it was centrifuged at 7,500×g for 5 min at 4° C. After removing the ethanol, the RNA pellet contained in the tube was dried for 5 min at 4° C. and dissolved in nuclease-free water. The RNA sample concentration was measured at a wavelength of 260 nm and 280 nm using a UV/VIS spectrophotometer (Beckman coulter, DU730) and the integrity of RNA sample was verified by agarose gel electrophoresis.
(§3) DNA microarry analysis using RNAs of visceral fat and liver tissue was conducted by GENOCHECK (CO., LTD.). RNA samples were pooled from 10 mice in each experimental group and subjected to microarray experiments in triplicate for the test of reproducibility. NimbleGen Mouse Whole Oligo 12-plex chip used in this experiment was prepared by triplicating 42,576 genes using Mouse Genome Build 8 as database. In NimbleGen mouse Whole Oligo 12-plex chip, 137,090 spots excluded control group gene were spotted by 16 μm×16 μm size in 17.4 mm×13 mm size. 42,576 oligo included […] genes which are known their functions and 5,431 transcripts and EST sequences which are unknown their functions. 10-50 μg of total RNA was added in oligo-dT primer, reverse transcriptase, dNTP, Cy3-dUTP and Cy5-dUTP, and reverse-transcripted according to the kit manufacturer's recommendations. The resultant was purified using cartridge, dried and dissolved in hybridization buffer solution (30 μL). The microarray was placed in hybridization cassette, heated at 95-100° C. for 5 min, mixed independently to each of RNA labeled with Cy3 and Cy5, and hybridized at 45° C. for 18 hrs. The slide was washed twice in solution containing 1×SSC and 0.1% SDS for 5 min, washed in 1×SSC for 5 min and dried to analyze.
(§4) The profile for olfactory receptors in which the expression was regulated by more than 2-fold change due to intake of odor components at each tissue was shown in Tables 5. As a result, it was determined that various types of odor components having anti-obesity efficacy regulated a plurality of olfactory receptors in peripheral tissues.

[3] = tested on: olfactory receptors in visceral fat and liver tissues; test: OligoDNA microarray, visceral fat and liver tissues of HFD mice fed odor components (tissue not separated in text); type: in vivo; settings: supplemented to mouse fed high-fat diet for 10 weeks
Excerpt: as §1, §2, §3, §4

[4] = tested on: obesity and metabolic diseases-related genes in visceral fat tissue; test: RT-PCR of obesity and metabolic diseases-related genes, visceral fat tissue; type: in vivo, mouse; settings: odor component-supplemented group to the HFD control group
Experimental: (§5) After adding 1 mL of Trizol agent (Invitrogen, USA) per 0.1 g of visceral fat or liver tissues, the mixture was homogenized and centrifuged at 12,000×g for 10 min at 4° C. The supernatant was transferred to a new tube and 200 μl of chloroform was added to the tube, followed by vortexing. The same procedure was repeated twice and then the supernatant was transferred to a new tube, followed by addition of isopropanol and the supernatant at 1:1 ratio. The mixture was vigorously shaken 10 times and then incubated for 10 min at room temperature, followed by centrifugation at 12,000×g for 10 min at 4° C. to remove the supernatant. After adding 1 mL of 70% ethanol to the remaining pellet, it was centrifuged at 7,500×g for 5 min at 4° C. After removing the ethanol, the RNA pellet contained in the tube was dried for 5 min at 4° C. and dissolved in nuclease-free water. The RNA sample concentration was measured at a wavelength of 260 nm and 280 nm using a UV/VIS spectrophotometer (Beckman coulter, DU730) and the integrity of RNA sample was verified by agarose gel electrophoresis. The RNA sample obtained from the visceral fat or liver tissues was trasnscribed using oligo dT primer and reverse transcriptase (GIBCO BRL, Gaithersburg, Md., USA) to synthesize cDNA. The PCR amplification was performed using the cDNA as templates and primers complementary to cDNA [NT] flanking sequence. 1 μl of the amplified products were resolved on agarose gel electrophoresis to verify DNA band.

[5] = tested on: obesity and metabolic diseases-related genes in liver tissue; test: RT-PCR of obesity and metabolic diseases-related genes, liver tissue; type: in vivo, mouse; settings: odor component-supplemented group to the HFD control group
Experimental: as §5

[6] = tested on: HSL (hormone sensitive lipase); test: Western blotting, protein phosphorylation of HSL; type: in vivo, mouse; settings: odor component-supplemented group to the HFD control group
Experimental: (§6) A certain amount of visceral fat or liver tissues in mortar was homogenized with liquid nitrogen and cell lysis buffer. The mixture was transferred to a new tube, followed by vortexing. After centrifugation at 13,000×g for 20 min at 4° C., the middle layer of the tube was obtained and proteins were quantified by Bradford method. 50 μg of protein was electrophorized to SDS polyacrylamide gel, followed by electroblotting to PVDF hyper film. The protein was reacted using an appropriate antibody for the protein and detected by ECL, whereby insulin resistance, adipocyte differentiation, lipid metabolism or energy consumption-related mechanism of phytochemical components was investigated in the protein level.
(§7) In order to verify this, protein phosphorylations of HSL (hormone sensitive lipase), CREB (cAMP-responsive element binding protein) and AKT (v-akt murine thymoma viral oncogene) were evaluated by western blotting analysis.

[7] = tested on: CREB (cAMP-responsive element binding protein); test: Western blotting, protein phosphorylation of CREB; type: in vivo, mouse; settings: odor component-supplemented group to the HFD control group
Experimental: as §6, §7

[8] = tested on: AKT (v-akt murine thymoma viral oncogene); test: Western blotting, protein phosphorylation of AKT; type: in vivo, mouse; settings: odor component-supplemented group to the HFD control group
Experimental: as §6, §7

C/C=C1/[C@H](O[C@@H]2O[C@H](CO)[C@@H](O)[C@H](O)[C@H]2O)OC=C(C(=O)OC)[C@H]1CC(=O)OCCc1ccc(O)c(O)c1 [oleuropein] was tested. Which “Olfr290 expression fold change to HFD group” value [1] did it give?
Its value is 2.32.

And the “Olfr341 expression fold change to HFD group” value [1]?
Its value is 0.3.

And the “Olfr495 expression fold change to HFD group” value [1]?
Its value is 0.21.

What about the “Olfr520 expression fold change to HFD group” value [1] of the same compound?
Its value is 2.08.

What about the “Olfr907 expression fold change to HFD group” value [1] of the same compound?
Its value is 0.49.

What about the “Olfr971 expression fold change to HFD group” value [1] of the same compound?
Its value is 2.37.

What about the “Olfr1046 expression fold change to HFD group” value [1] of the same compound?
The value was 2.01.

What about the “Olfr1104 expression fold change to HFD group” value [1] of the same compound?
The value was 4.39.

What about the “Olfr1447 expression fold change to HFD group” value [1] of the same compound?
Its value is 2.33.

What about the “Olfr341 expression fold change to HFD group” value ([1]; listed as Oleuropein) of the same compound?
The value was 0.30.

And the “Olfr38 expression fold change to HFD group” value [2]?
Its value is 2.35.

And the “Olfr275 expression fold change to HFD group” value [2]?
The value was 2.49.

And the “Olfr1136 expression fold change to HFD group” value [2]?
The value was 0.49.

What about the “Olfr1204 expression fold change to HFD group” value [2] of the same compound?
The value was 2.21.

And the “Olfr1214 expression fold change to HFD group” value [2]?
Its value is 2.17.

What about the “Olfr1317 expression fold change to HFD group” value [2] of the same compound?
The value was 2.89.

What about the “expression of olfactory receptor 38 increased” value [3] of the same compound?
The value was “more than 2 fold change”.

And the “expression of olfactory receptor 275 increased” value [3]?
Its value is “more than 2 fold change”.

And the “expression of olfactory receptor 290 increased” value [3]?
Its value is “more than 2 fold change”.

And the “expression of olfactory receptor 341 decreased” value [3]?
Its value is “more than 2 fold change”.

And the “expression of olfactory receptor 495 decreased” value [3]?
The value was “more than 2 fold change”.

What about the “expression of olfactory receptor 520 increased” value [3] of the same compound?
The value was “more than 2 fold change”.

What about the “expression of olfactory receptor 907 decreased” value [3] of the same compound?
Its value is “more than 2 fold change”.

And the “expression of olfactory receptor 971 increased” value [3]?
The value was “more than 2 fold change”.

What about the “expression of olfactory receptor 1046 increased” value [3] of the same compound?
The value was “more than 2 fold change”.

What about the “expression of olfactory receptor 1104 increased” value [3] of the same compound?
The value was “more than 2 fold change”.

What about the “expression of olfactory receptor 1136 decreased” value [3] of the same compound?
The value was “more than 2 fold change”.

What about the “expression of olfactory receptor 1204 increased” value [3] of the same compound?
The value was “more than 2 fold change”.

What about the “expression of olfactory receptor 1214 increased” value [3] of the same compound?
Its value is “more than 2 fold change”.

And the “expression of olfactory receptor 1317 increased” value [3]?
The value was “more than 2 fold change”.

What about the “expression of olfactory receptor 1447 increased” value [3] of the same compound?
The value was “more than 2 fold change”.

And the “C/EBPα gene expression, decrease (change rate)” value [4]?
The value was 22% decrease.

What about the “CPT1 gene expression, increase (change rate)” value [4] of the same compound?
The value was 50% increase^.

And the “FAS gene expression, decrease (change rate)” value [4]?
Its value is 65 decrease %.

What about the “IL-6 gene expression, decrease (change rate)” value [4] of the same compound?
The value was 78% decrease.

And the “PGC1α gene expression, increase (change rate)” value [4]?
Its value is 210% increase ^.

And the “PPARγ2 gene expression, decrease (change rate)” value [4]?
The value was 35% decrease.

And the “SIRT1 gene expression, increase (change rate)” value [4]?
Its value is 98% increase^.

And the “TNFα gene expression, decrease (change rate)” value [4]?
The value was 66% decrease.

What about the “UCP1 gene expression, increase (change rate)” value [4] of the same compound?
Its value is 450% increase ^.

And the “UCP3 gene expression, increase (change rate)” value [4]?
Its value is 82% increase^.

What about the “aP2 gene expression, decrease (change rate)” value [4] of the same compound?
The value was 26% decrease.

What about the “C/EBPα gene expression, decrease (change rate)” value [5] of the same compound?
Its value is 16% decrease.

What about the “CPT1 gene expression, increase (change rate)” value [5] of the same compound?
The value was 33% increase^.

And the “FAS gene expression, decrease (change rate)” value [5]?
The value was 40% decrease.

And the “IL-6 gene expression, decrease (change rate)” value [5]?
Its value is 62% decrease.

And the “PPARγ2 gene expression, decrease (change rate)” value [5]?
Its value is 94% decrease.

And the “TNFα gene expression, decrease (change rate)” value [5]?
The value was 60% decrease.

And the “aP2 gene expression, decrease (change rate)” value [5]?
Its value is 29% decrease.

And the “HSL phosphorylation, increase (change rate)” value [6]?
The value was 52% increase.

And the “CREB phosphorylation, increase (change rate)” value [7]?
Its value is 60% increase.

And the “AKT phosphorylation, increase (change rate)” value [8]?
The value was 59% increase.
